Structures can show the parent of a compound that is named as a salt.
biological target: pim-1 kinase (Homo sapiens, UniProt P11309); assay: Measurement of pim-1 kinase inhibitory activity (fluorescent substrate peptide, capillary electrophoresis); format: biochemical; details: 0.1 μM of each compound, 30 μM ATP, 1.5 μM substrate peptide, room temperature 2 hours; Table 1
Description: Measurement of Pim-1 Kinase Inhibitory Activity
The result of the reaction was determined by quantifying the substrate and the phosphorylated reaction product separated by capillary electrophoresis based on difference in charges of the substances (EZ Reader II, Caliper Life Sciences, was used).

pim-1 kinase, sequence (P11309 whole entry): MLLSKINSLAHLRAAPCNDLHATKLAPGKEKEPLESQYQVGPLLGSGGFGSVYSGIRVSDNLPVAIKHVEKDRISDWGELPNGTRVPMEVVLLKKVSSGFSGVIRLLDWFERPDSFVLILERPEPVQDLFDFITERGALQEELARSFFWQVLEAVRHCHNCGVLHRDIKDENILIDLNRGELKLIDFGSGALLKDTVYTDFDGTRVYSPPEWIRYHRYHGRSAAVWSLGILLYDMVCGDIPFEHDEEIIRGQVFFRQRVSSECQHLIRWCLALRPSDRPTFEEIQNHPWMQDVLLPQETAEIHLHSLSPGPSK

| inhibition at 0.1 µM [%] | SMILES |
| --- | --- |
| 101 | O=C1/C(=C/c2c[nH]c3ncc(Br)cc23)Oc2c1ccc(O)c2CN1CCNCC1 [Compound A52, (Z)-2-[(5-Bromo-1H-pyrrolo[2,3-b]pyridin-3-yl)methylene]-6-hydroxy-7-(piperazin-1-ylmethyl)benzofuran-3(2H)-one trihydrochloride] |
| 96 | O=C1/C(=C/c2c[nH]c3ncccc23)Oc2c1ccc(O)c2CN1CCNCC1 [Compound A42, (Z)-2-[(1H-Pyrrolo[2,3-b]pyridin-3-yl)methylene]-6-hydroxy-7-(piperazin-1-ylmethyl)benzofuran-3(2H)-one trihydrochloride] |
| 29 | O=C1/C(=C/c2c[nH]c3c([N+](=O)[O-])cccc23)Oc2c1ccc(O)c2CN1CCNCC1 [Compound A27, (Z)-6-Hydroxy-2-[(7-nitro-1H-indol-3-yl)methylene]-7-(piperazin-1-ylmethyl)benzofuran-3(2H)-one dihydrochloride] |
| 71 | O=C1/C(=C/c2c[nH]c3ccccc23)Oc2c1cc(-c1ccccc1)c(O)c2CN1CCNCC1 [Compound A13, (Z)-2-[(1H-Indol-3-yl)methylene]-6-hydroxy-5-phenyl-7-(piperazin-1-ylmethyl)benzofuran-3(2H)-one dihydrochloride] |
| 20 | CN(C)CCCN(C)Cc1c(O)ccc2c1O/C(=C\c1c[nH]c3ccccc13)C2=O [Compound A8, (Z)-2-[(1H-Indol-3-yl)methylene]-7-({[3-(dimethylamino)propyl](methyl)amino}methyl)-6-hydroxybenzofuran-3(2H)-one] |
| 72 | COc1ccc2c(c1CN1CCOCC1)O/C(=C\c1c[nH]c3ncccc13)C2=O [Compound A54, (Z)-2-[(1H-Pyrrolo[2,3-b]pyridin-3-yl)methylene]-6-methoxy-7-(morpholinomethyl)benzofuran-3(2H)-one] |
| 40 | COc1ccc2c(c1CN1CCOCC1)O/C(=C\c1c[nH]c3ccccc13)C2=O [Compound A41, (Z)-2-[(1H-Indol-3-yl)methylene]-6-methoxy-7-(morpholinomethyl)benzofuran-3(2H)-one] |
| 98 | O=C1/C(=C/c2c[nH]c3nc(Br)ccc23)Oc2c1ccc(O)c2CN1CCNCC1 [Compound A47, (Z)-2-[(6-Bromo-1H-pyrrolo[2,3-b]pyridin-3-yl)methylene]-6-hydroxy-7-(piperazin-1-ylmethyl)benzofuran-3(2H)-one trihydrochloride] |
| 10 | CNCc1cccc2c(/C=C3\Oc4c(ccc(O)c4CN4CCNCC4)C3=O)c[nH]c12 [Compound A28, (Z)-6-Hydroxy-2-({7-[(methylamino)methyl]-1H-indol-3-yl}methylene)-7-(piperazin-1-ylmethyl)benzofuran-3(2H)-one trihydrochloride] |
| 94 | C#Cc1ccc2c(/C=C3\Oc4c(ccc(O)c4CN4CCNCC4)C3=O)c[nH]c2n1 [Compound A50, (Z)-2-[(6-Ethynyl-1H-pyrrolo[2,3-b]pyridin-3-yl)methylene]-6-hydroxy-7-(piperazin-1-ylmethyl)benzofuran-3(2H)-one trihydrochloride] |
| 56 | COC(=O)c1ccc2c(/C=C3\Oc4c(ccc(O)c4CN4CCNCC4)C3=O)c[nH]c2c1 [Compound A23, Methyl (Z)-3-{[6-hydroxy-3-oxo-7-(piperazin-1-ylmethyl)benzofuran-2(3H)-ylidene]methyl}-1H-indole-6-carboxylate] |
| 98 | COc1ccc2c(c1CN1CCNCC1)O/C(=C\c1c[nH]c3ncccc13)C2=O [Compound A53, (Z)-2-[(1H-Pyrrolo[2,3-b]pyridin-3-yl)methylene]-6-methoxy-7-(piperazin-1-ylmethyl)benzofuran-3(2H)-one] |
| 99 | O=C1/C(=C/c2c[nH]c3nc(Cl)ccc23)Oc2c1ccc(O)c2CN1CCNCC1 [Compound A46, (Z)-2-[(6-Chloro-1H-pyrrolo[2,3-b]pyridin-3-yl)methylene]-6-hydroxy-7-(piperazin-1-ylmethyl)benzofuran-3(2H)-one trihydrochloride] |
| 62 | O=C1/C(=C/c2c[nH]c3ccc(OCCN4CCOCC4)cc23)Oc2c1ccc(O)c2CN1CCNCC1 [Compound A19, (Z)-6-Hydroxy-2-{[5-(2-morpholinoethoxy)-1H-indol-3-yl]methylene}-7-(piperazin-1-ylmethyl)benzofuran-3(2H)-one dihydrochloride trihydrochloride] |
| 51 | CN(C)CCCN1CCN(Cc2c(O)ccc3c2O/C(=C\c2c[nH]c4ccccc24)C3=O)CC1 [Compound A1, (Z)-2-[(1H-Indol-3-yl)methylene]-7-({4-[3-(dimethylamino)propyl]piperazin-1-yl}methyl)-6-hydroxybenzofuran-3(2H)-one] |
| 87 | COc1cc(CN2CCNCC2)c2c(c1)C(=O)/C(=C/c1c[nH]c3ccccc13)O2 [Compound A14, (Z)-2-[(1H-Indol-3-yl)methylene]-5-methoxy-7-(piperazin-1-ylmethyl)benzofuran-3(2H)-one dihydrochloride] |
| 94 | Cc1ccc2c(/C=C3\Oc4c(cc(Cl)c(O)c4CN4CCNCC4)C3=O)c[nH]c2n1 [Compound A51, (Z)-5-Chloro-6-hydroxy-2-[(6-methyl-1H-pyrrolo[2,3-b]pyridin-3-yl)methylene]-7-(piperazin-1-ylmethyl)benzofuran-3(2H)-one trihydrochloride] |
| 47 | Cc1ccc(S(=O)(=O)n2cc(/C=C3\Oc4c(ccc(O)c4CN4CCN(C)CC4)C3=O)c3ccccc32)cc1 [Compound A31, (Z)-6-Hydroxy-7-[(4-methylpiperazin-1-yl)methyl]-2-[(1-tosyl-1H-indol-3-yl)methylene]benzofuran-3(2H)-one] |
| 16 | O=C1/C(=C/c2c[nH]c3nc(-c4ccccc4)ccc23)Oc2c1ccc(O)c2CN1CCNCC1 [Compound A49, (Z)-6-Hydroxy-2-[(6-phenyl-1H-pyrrolo[2,3-b]pyridin-3-yl)methylene]-7-(piperazin-1-ylmethyl)benzofuran-3(2H)-one trihydrochloride] |

same assay, conditions: 0.1 μM of each compound, 30 μM ATP, 1.5 μM substrate peptide, room temperature 2 hours; Table 2

| inhibition at 0.1 µM [%] | Pim-1 kinase inhibitory activity (%) | SMILES |
| --- | --- | --- |
| 41 | – | CN1CCN(Cc2c(O)ccc3c2O/C(=C\c2n[nH]c4ccccc24)C3=O)CC1 [Compound B4, (Z)-2-[(1H-Indazol-3-yl)methylene]-6-hydroxy-7-[(4-methylpiperazin-1-yl)methyl]benzofuran-3(2H)-one] |
| 31 | – | O=C1/C(=C/c2n[nH]c3ccccc23)Oc2c1ccc(O)c2C(=O)N1CCNCC1 [Compound B36, (Z)-2-[(1H-Indazol-3-yl)methylene]-6-hydroxy-7-(piperazine-1-carbonyl)benzofuran-3(2H)-one] |
| 88 | – | O=C1/C(=C/c2n[nH]c3ccccc23)Oc2c1cc(Cl)c(O)c2CN1CCNCC1 [Compound B13, (Z)-2-[(1H-Indazol-3-yl)methylene]-5-chloro-6-hydroxy-7-(piperazin-1-ylmethyl)benzofuran-3(2H)-one] |
| 90 | – | O=C1/C(=C/c2n[nH]c3ccc(Cl)cc23)Oc2c1cc(Cl)c(O)c2CN1CCNCC1 [Compound B15, (Z)-5-Chloro-2-[(5-chloro-1H-indazol-3-yl)methylene]-6-hydroxy-7-(piperazin-1-ylmethyl)benzofuran-3(2H)-one] |
| 14 | – | CN1CCN(Cc2cc(Cl)cc3c2O/C(=C\c2n[nH]c4ccccc24)C3=O)CC1 [Compound B40, (Z)-2-[(1H-Indazol-3-yl)methylene]-5-chloro-7-[(4-methylpiperazin-1-yl)methyl]benzofuran-3(2H)-one] |
| 87 | – | COc1ccc2[nH]nc(/C=C3\Oc4c(ccc(O)c4CN4CCNCC4)C3=O)c2c1 [Compound B11, (Z)-6-Hydroxy-7-(piperazin-1-ylmethyl)-2-[(5-methoxy-1H-indazol-3-yl)methylene]benzofuran-3(2H)-one] |
| 88 | – | O=C1/C(=C/c2n[nH]c3ccccc23)Oc2c1ccc(O)c2CN1CCNCC1 [Compound B1, (Z)-2-[(1H-Indazol-3-yl)methylene]-6-hydroxy-7-(piperazin-1-ylmethyl)benzofuran-3(2H)-one] |
| 94 | – | O=C1/C(=C/c2n[nH]c3ccccc23)Oc2c1ccc(OCCO)c2CN1CCNCC1 [Compound B34, (Z)-2-[(1H-Indazol-3-yl)methylene]-6-(2-hydroxyethoxy)-7-(piperazin-1-ylmethyl)benzofuran-3(2H)-one] |
| 95 | – | COc1ccc2c(c1C(C)N1CCNCC1)O/C(=C\c1n[nH]c3ccccc13)C2=O (stereo not drawn) [Compound B20, (Z)-2-[(1H-Indazol-3-yl)methylene]-6-methoxy-7-[1-(piperazin-1-yl)-ethyl]benzofuran-3(2H)-one] |
| – | 61 | C[C@@H]1CN(Cc2c(O)ccc3c2O/C(=C\c2n[nH]c4ccccc24)C3=O)C[C@H](C)N1 [Compound B2] |
| 80 | – | O=C1/C(=C/c2n[nH]c3ccc(F)cc23)Oc2c1cc(Cl)c(O)c2CN1CCNCC1 [Compound B14, (Z)-5-Chloro-2-[(5-fluoro-1H-indazol-3-yl)methylene]-6-hydroxy-7-(piperazin-1-ylmethyl)benzofuran-3(2H)-one] |
| 22 | – | O=C1/C(=C/c2n[nH]c3ccccc23)Oc2c1ccc(O)c2CN1CCOCC1 [Compound B5, (Z)-2-[(1H-Indazol-3-yl)methylene]-6-hydroxy-7-(morpholinomethyl)benzofuran-3(2H)-one] |
| 93 | – | O=C1/C(=C/c2n[nH]c3ccc(Br)cc23)Oc2c1cc(Cl)c(O)c2CN1CCNCC1 [Compound B16, (Z)-5-Chloro-2-[(5-bromo-1H-indazol-3-yl)methylene]-6-hydroxy-7-(piperazin-1-ylmethyl)benzofuran-3(2H)-one] |
| 49 | – | O=C1CN(Cc2c(O)ccc3c2O/C(=C\c2n[nH]c4ccccc24)C3=O)CCN1 [Compound B6, (Z)-4-({2-[(1H-Indazol-3-yl)methylene]-6-hydroxy-3-oxo-2,3-dihydrobenzofuran-7-yl}methyl)piperazin-2-one] |

Source: patent US9156827B2, “Anticancer agent” (THE UNIVERSITY OF TOKYO, priority 2010, dated 2015)
